Assay results from patent US11261194B2, “Production method of diol” (MITSUBISHI GAS CHEMICAL COMPANY, INC., priority 2017, dated 2022).
Converted amounts (≈) assume the structure as drawn.

Assay: solubility in water at 25° C.
Assay type: physicochemical

Compound	solubility	solubility in water at 25° C.
O=C1CCC(=O)CC1 [1,4-cyclohexanedione]	750 mg/mL (≈ 6690 mM)	–
CCC1(CO)COC2(CCC3(CC2)OCC(CC)(CO)CO3)OC1 (stereo not shown) [compound A]	–	≤ 0.5 mg/mL
CC1(CO)COC2(CCC3(CC2)OCC(C)(CO)CO3)OC1 (stereo not shown) [compound B]	–	≤ 0.5 mg/mL
CC(CO)(CO)CO [trimethylolethane]	–	≥ 100 mg/mL
